From patent US20260083751A1, “ALLOSTERIC MODULATORS OF ANDROGEN RECEPTOR COACTIVATOR RECRUITMENT FOR CRPC THERAPY” (University of Pittsburgh – Of the Commonwealth System of …, priority 2022, published 2026)
“Also recorded” adds a separate entry of the source.

Assays:
Assay type in all cases: cell-based
TIF2 = target: T1, TIF2 (Homo sapiens, UniProt Q15596); test: Western blotting cellular thermal shift assay for TIF2 in C4-2 cells; conditions: 20 μM, TIF2 western blots
T1 construct: endogenous in cells; host or cells: C4-2 castration resistant prostate cancer cells
T1 sequence (Q15596 whole entry): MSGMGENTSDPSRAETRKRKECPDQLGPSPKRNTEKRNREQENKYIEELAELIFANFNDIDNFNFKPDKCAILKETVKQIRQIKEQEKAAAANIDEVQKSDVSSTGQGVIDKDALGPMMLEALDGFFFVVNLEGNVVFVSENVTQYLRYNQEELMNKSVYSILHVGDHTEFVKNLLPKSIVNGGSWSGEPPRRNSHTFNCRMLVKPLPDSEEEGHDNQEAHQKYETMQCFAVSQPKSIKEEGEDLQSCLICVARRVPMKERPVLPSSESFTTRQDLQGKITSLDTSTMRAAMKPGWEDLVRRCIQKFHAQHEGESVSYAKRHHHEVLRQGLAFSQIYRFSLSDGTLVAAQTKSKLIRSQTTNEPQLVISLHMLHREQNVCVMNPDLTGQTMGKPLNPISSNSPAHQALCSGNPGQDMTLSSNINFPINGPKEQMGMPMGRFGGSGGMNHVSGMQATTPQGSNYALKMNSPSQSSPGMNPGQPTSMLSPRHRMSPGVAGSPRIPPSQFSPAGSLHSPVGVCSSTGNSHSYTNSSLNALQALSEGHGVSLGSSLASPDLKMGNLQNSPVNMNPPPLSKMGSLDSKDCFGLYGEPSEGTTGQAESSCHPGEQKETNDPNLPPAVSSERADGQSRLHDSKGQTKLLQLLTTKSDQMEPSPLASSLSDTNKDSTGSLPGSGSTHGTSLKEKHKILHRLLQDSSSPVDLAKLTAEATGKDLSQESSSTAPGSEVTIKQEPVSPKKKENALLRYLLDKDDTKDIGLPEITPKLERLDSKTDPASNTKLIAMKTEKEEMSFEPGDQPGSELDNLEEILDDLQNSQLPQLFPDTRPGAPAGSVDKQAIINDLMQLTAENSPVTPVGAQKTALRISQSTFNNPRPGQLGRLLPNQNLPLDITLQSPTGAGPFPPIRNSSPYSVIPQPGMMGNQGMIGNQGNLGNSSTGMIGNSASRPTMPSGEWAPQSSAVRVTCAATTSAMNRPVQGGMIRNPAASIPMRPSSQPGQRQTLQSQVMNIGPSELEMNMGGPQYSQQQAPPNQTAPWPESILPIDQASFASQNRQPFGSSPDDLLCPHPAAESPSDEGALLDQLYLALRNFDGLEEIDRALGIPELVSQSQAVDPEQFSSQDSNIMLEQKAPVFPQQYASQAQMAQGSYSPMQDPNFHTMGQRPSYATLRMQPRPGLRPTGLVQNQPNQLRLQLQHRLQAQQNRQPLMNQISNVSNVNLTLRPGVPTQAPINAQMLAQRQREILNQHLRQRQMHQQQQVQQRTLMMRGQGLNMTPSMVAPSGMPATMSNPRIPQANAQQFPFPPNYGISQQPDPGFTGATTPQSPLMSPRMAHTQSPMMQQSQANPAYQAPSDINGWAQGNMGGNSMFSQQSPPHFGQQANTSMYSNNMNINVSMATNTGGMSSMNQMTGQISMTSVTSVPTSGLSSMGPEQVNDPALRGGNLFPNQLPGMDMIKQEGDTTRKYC
Protocol: (§1) Western Blotting Cellular Thermal Shift Assays for TIF2 and AR Target Engagement in C4-2 Cells: C4-2 cells were harvested by trypsinization, washed 1× by centrifugation at 270×g for 5 min and resuspension in PBS, counted, centrifugated at 270× g for 5 min and resuspended at 7×10^6 cells per mL in Opti-MEM medium (Gibco, Gaithersburg, MD). 50 μL of C4-2 cell suspension (3.5×10^5 cells) were then transferred to PCR tubes that were placed in a T-100 thermocycler (BioRad, Hercules, CA) and a 2° C. interval temperature step gradient from 37° C. to 53° C. was applied. Cells were maintained at each step of the temperature gradient for 5 min and then tubes were withdrawn and placed on ice. 50 μL of cell lysis buffer, 500 mM NaCl, 1% NP-40, 1× protease inhibitor cocktail in PBS were added to the heat shocked cell suspensions in PCR tubes and placed on ice for an additional 30 min. Cell lysates were then centrifuged at 14,000 RPM (18,800×g) at 4° C. for 15 min and supernatants were transferred to new tubes and protein concentrations were determined in a bicinchoninic acid (BCA) assay. 45 μL of cell lysis supernatants were mixed with 15 μL of 5×SDS-PAGE sample buffer and placed in a heat block at 100° C. for 5 min. The protein constituents of heat shocked C4-2 cell lysis supernatants were separated by SDS-PAGE on 8% separating gels, transferred to nitrocellulose membranes that were blocked for 1 h at room temperature in 5% non-fat milk in TBST, and then probed overnight at 4° C. with a 1:1000 dilution of either rabbit anti-AR (Cell Signaling, Danvers, MA) or rabbit anti-TIF2 (Bethyl Laboratories, Waltham, MA) primary antibodies in TBST containing 5% non-fat milk. Membranes were then washed 3× in TBST buffer for 10 min, then incubated with a 1:10,000 dilution of the goat anti-rabbit IgG HRP conjugated secondary antibody (Invitrogen, Carlsbad, CA) in TBST containing 5% non-fat milk for 1 h at room temperature. Western blots were then washed 3× in TBST buffer and developed with Pierce ECL western blotting substrate. Images of ECL western blots were acquired on an iBright™ 1500 imaging system and quantified using the iBright™ image analysis software.

AR = target: T2, AR (Homo sapiens, UniProt P10275, T878A); test: Western blotting cellular thermal shift assay for AR in C4-2 cells; conditions: for AR thermal stability at 46° C., compound alone (western blot): hits 20 μM for 1 h at 37° C.; for DHT-enhanced AR thermal stability at 46° C. (western blot): hits 20 μM, 10 nM DHT
T2 construct: the amount of soluble AR protein in heat shocked C4-2 cell lysates; endogenous in cells; host or cells: C4-2 castration resistant prostate cancer cells
T2 sequence (P10275 1-920 T878A): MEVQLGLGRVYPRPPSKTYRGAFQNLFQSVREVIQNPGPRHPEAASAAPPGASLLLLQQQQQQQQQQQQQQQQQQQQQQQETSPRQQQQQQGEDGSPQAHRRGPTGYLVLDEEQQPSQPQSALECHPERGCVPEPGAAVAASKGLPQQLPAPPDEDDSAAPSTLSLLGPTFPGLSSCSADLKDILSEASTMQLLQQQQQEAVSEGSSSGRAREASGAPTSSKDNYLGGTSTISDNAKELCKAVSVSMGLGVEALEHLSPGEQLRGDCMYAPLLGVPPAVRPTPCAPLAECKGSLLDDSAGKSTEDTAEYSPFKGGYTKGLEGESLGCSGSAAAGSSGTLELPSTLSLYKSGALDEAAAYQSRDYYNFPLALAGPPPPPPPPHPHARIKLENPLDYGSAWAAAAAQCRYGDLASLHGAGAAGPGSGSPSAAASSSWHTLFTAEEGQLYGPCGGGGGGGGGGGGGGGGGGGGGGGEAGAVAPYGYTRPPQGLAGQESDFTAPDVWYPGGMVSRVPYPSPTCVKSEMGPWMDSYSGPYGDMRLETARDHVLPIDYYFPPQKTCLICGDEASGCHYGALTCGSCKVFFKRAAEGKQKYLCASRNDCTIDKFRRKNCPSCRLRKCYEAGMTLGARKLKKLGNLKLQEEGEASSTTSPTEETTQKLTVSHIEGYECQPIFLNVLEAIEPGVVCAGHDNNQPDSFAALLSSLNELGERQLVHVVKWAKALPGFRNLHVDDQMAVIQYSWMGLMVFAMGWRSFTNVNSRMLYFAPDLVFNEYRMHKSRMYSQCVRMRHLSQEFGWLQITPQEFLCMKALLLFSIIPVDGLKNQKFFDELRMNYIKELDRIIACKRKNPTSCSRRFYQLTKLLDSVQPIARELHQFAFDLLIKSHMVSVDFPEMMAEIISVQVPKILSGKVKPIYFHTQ
Protocol: as §1

[1] = tested on: PSA secretion in C4-2 conditioned media; test: Dot blot of PSA secretion by C4-2 cells; conditions: C4-2 cells, 20 μM 3 h, ±10 nM DHT 24 h
Protocol: To determine PSA secretion levels, C4-2 cells were seeded at 1.4×10^5 cells/well in 12-well plates and treated as described above for PSA cell expression experiments. […] 500 μL of conditioned media supernatant was added to the wells of 96-well to Bio-blot apparatus (BioRad, Hercules, CA) containing a nitrocellulose membrane and was allowed to pass through and attach to the membrane under gravity for 3-4 h at room temperature. The membrane was washed 1× with 500 μL TBS under vacuum, blocked with 1% BSA in TBST for 1 h, and then incubated overnight at 4° C. with the primary rabbit anti-hPSA antibody (Cell Signaling, Danvers, MA) diluted 1:1000 in TBST plus 1% BSA. Dot blots were washed 3× in 10 mL of TBST for 10 min, then incubated for 1 h with secondary goat anti-rabbit-IgG HRP conjugated antibody (Invitrogen, Carlsbad, CA) diluted 1:10,000 in TBST plus 1% Bovine Serum Albumin (BSA), washed 3× with […] of TBST for 10 min, and then developed with Pierce ECL western blotting substrate. Images of ECL dot blots were acquired on an iBright™ 1500 imaging system and quantified by iBright™ image analysis software (ThermoFisher Scientific, Waltham, MA).

Row | SMILES | TIF2 thermal stability at 46° C. (TIF2) | AR thermal stability at 46° C., compound alone (western blot) (AR) | DHT-enhanced AR thermal stability at 46° C. (western blot) (AR) | Endogenous and DHT-enhanced PSA secretion [1] | TIF2 thermal stability at 46° C. (TIF2; listed as 6)
1 | Cc1ccccc1-c1cc(O)c2c(c1)CN(c1nc(C(N)=O)cs1)CCO2 [Compound S1-1] | did not enhance TIF2 thermal stability; also recorded: do not enhance TIF2 thermal stability | did not stabilize AR | only partially blocked DHT-enhanced AR stabilization; also recorded: inhibition of DHT-enhanced AR thermal stability | substantially reduced; also recorded: inhibition | –
2 | Cc1nsc(NC(=O)N2CCC(Sc3ccccc3C)CC2)n1 [Compound S2-6] | did not enhance TIF2 thermal stability; also recorded: do not enhance TIF2 thermal stability | did not stabilize AR | blocked DHT-enhanced AR thermal stabilization below DMSO baseline levels; also recorded: inhibition of DHT-enhanced AR thermal stability | substantially reduced; also recorded: inhibition | did not enhance TIF2 stability
3 | Cc1c(-c2ccccc2F)[nH]c2ccc(CNC(=O)CCc3cn[nH]c3)cc12 [Compound S3-11] | did not enhance TIF2 thermal stability; also recorded: do not enhance TIF2 thermal stability | did not stabilize AR | only partially blocked DHT-enhanced AR stabilization; also recorded: inhibition of DHT-enhanced AR thermal stability | substantially reduced; also recorded: inhibition | –
